Measured values from PubChem BioAssay AID1918943 (Molecular Pharmacology Branch, DTP, NCI, 2023).

Tested on: 855422-203-R-J1-PDC complex spheroid viability
Assay: Anticancer human tumor 855422-203-R-J1-PDC patient-derived bladder carcinoma cell line growth inhibition
Details: for IC50: curve of first compound; for viability, T/C: stronger effect = lower value
Procedure, shortened: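 Multicellular complex spheroids of tumor cells with human endothelial cells (HUVEC) and mesenchymal stem cells; the LSD1 inhibitor iadademstat was combined with standard-of-care or investigational agents. Top concentration at or near clinical Cmax, half-log dilutions; final DMSO ≤0.25%.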

[1] = second compound 0.1 µM, first compound 0.0316 µM
[2] = second compound 0.1 µM, first compound 0.1 µM
[3] = second compound 0.316 µM, first compound 0.0316 µM
[4] = second compound 0.316 µM, first compound 0.1 µM
[5] = second compound 1 µM, first compound 0.0316 µM
[6] = second compound 1 µM, first compound 0.1 µM
[7] = second compound 3.16 µM, first compound 0.0316 µM
[8] = second compound 3.16 µM, first compound 0.1 µM
[9] = second compound 10 µM, first compound 0.0316 µM
[10] = second compound 10 µM, first compound 0.1 µM
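Note: drug exposure lasted 7 days starting on day 3 after seeding.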
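Throughout, for viability, T/C: luminescence viability as percent of DMSO vehicle wells = 100%.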

## CC1(C)CCC(CN2CCN(c3ccc(C(=O)NS(=O)(=O)c4ccc(NCC5CCOCC5)c([N+](=O)[O-])c4)c(Oc4cnc5[nH]ccc5c4)c3)CC2)=C(c2ccc(Cl)cc2)C1 + NC1CC1c1ccc(-c2cccc(O)c2)cc1
Second compound 0.1 µM
  IC50: 6250 nM
Second compound 0.316 µM
  IC50: 6320 nM
Second compound 1 µM
  IC50: 5810 nM
Second compound 3.16 µM
  IC50: 5770 nM
Second compound 10 µM
  IC50: 5480 nM
[1]
  viability, T/C: 90.2%
[2]
  viability, T/C: 104%
Second compound 0.1 µM, first compound 0.316 µM
  viability, T/C: 93.5%
Second compound 0.1 µM, first compound 1 µM
  viability, T/C: 94.5%
Second compound 0.1 µM, first compound 3.16 µM
  viability, T/C: 95.5%
Second compound 0.1 µM, first compound 10 µM
  viability, T/C: 18.6%
[3]
  viability, T/C: 87%
[4]
  viability, T/C: 101%
Second compound 0.316 µM, first compound 0.316 µM
  viability, T/C: 101%
Second compound 0.316 µM, first compound 1 µM
  viability, T/C: 103%
Second compound 0.316 µM, first compound 3.16 µM
  viability, T/C: 97.2%
Second compound 0.316 µM, first compound 10 µM
  viability, T/C: 18.6%
[5]
  viability, T/C: 85.9%
[6]
  viability, T/C: 92.1%
Second compound 1 µM, first compound 0.316 µM
  viability, T/C: 90.3%
Second compound 1 µM, first compound 1 µM
  viability, T/C: 91.5%
Second compound 1 µM, first compound 3.16 µM
  viability, T/C: 88.4%
Second compound 1 µM, first compound 10 µM
  viability, T/C: 15.8%
[7]
  viability, T/C: 85.4%
[8]
  viability, T/C: 87.3%
Second compound 3.16 µM, first compound 0.316 µM
  viability, T/C: 89.4%
Second compound 3.16 µM, first compound 1 µM
  viability, T/C: 91.1%
Second compound 3.16 µM, first compound 3.16 µM
  viability, T/C: 94.6%
Second compound 3.16 µM, first compound 10 µM
  viability, T/C: 13.8%
[9]
  viability, T/C: 79.7%
[10]
  viability, T/C: 82.9%
Second compound 10 µM, first compound 0.316 µM
  viability, T/C: 82.6%
Second compound 10 µM, first compound 1 µM
  viability, T/C: 82.5%
Second compound 10 µM, first compound 3.16 µM
  viability, T/C: 84.8%
Second compound 10 µM, first compound 10 µM
  viability, T/C: 14.5%

## Cn1ncnc1C1c2n[nH]c(=O)c3cc(F)cc(c23)NC1c1ccc(F)cc1 (stereo not given) + NC1CC1c1ccc(-c2cccc(O)c2)cc1
Second compound 0.1 µM
  IC50: > 100 nM
Second compound 0.316 µM
  IC50: > 100 nM
Second compound 1 µM
  IC50: > 100 nM
Second compound 3.16 µM
  IC50: > 100 nM
Second compound 10 µM
  IC50: > 100 nM
Second compound 0.1 µM, first compound 0.000316 µM
  viability, T/C: 91.5%
Second compound 0.1 µM, first compound 0.001 µM
  viability, T/C: 75.1%
Second compound 0.1 µM, first compound 0.00316 µM
  viability, T/C: 74.4%
Second compound 0.1 µM, first compound 0.01 µM
  viability, T/C: 77.3%
[1]
  viability, T/C: 80.9%
[2]
  viability, T/C: 86.2%
Second compound 0.316 µM, first compound 0.000316 µM
  viability, T/C: 89.2%
Second compound 0.316 µM, first compound 0.001 µM
  viability, T/C: 76.7%
Second compound 0.316 µM, first compound 0.00316 µM
  viability, T/C: 76.1%
Second compound 0.316 µM, first compound 0.01 µM
  viability, T/C: 84.2%
[3]
  viability, T/C: 87.6%
[4]
  viability, T/C: 91.9%
Second compound 1 µM, first compound 0.000316 µM
  viability, T/C: 95.8%
Second compound 1 µM, first compound 0.001 µM
  viability, T/C: 97.3%
Second compound 1 µM, first compound 0.00316 µM
  viability, T/C: 96.5%
Second compound 1 µM, first compound 0.01 µM
  viability, T/C: 102%
[5]
  viability, T/C: 82.7%
[6]
  viability, T/C: 90.5%
Second compound 3.16 µM, first compound 0.000316 µM
  viability, T/C: 102%
Second compound 3.16 µM, first compound 0.001 µM
  viability, T/C: 106%
Second compound 3.16 µM, first compound 0.00316 µM
  viability, T/C: 103%
Second compound 3.16 µM, first compound 0.01 µM
  viability, T/C: 109%
[7]
  viability, T/C: 94.1%
[8]
  viability, T/C: 97.2%
Second compound 10 µM, first compound 0.000316 µM
  viability, T/C: 106%
Second compound 10 µM, first compound 0.001 µM
  viability, T/C: 110%
Second compound 10 µM, first compound 0.00316 µM
  viability, T/C: 97.6%
Second compound 10 µM, first compound 0.01 µM
  viability, T/C: 109%
[9]
  viability, T/C: 100%
[10]
  viability, T/C: 102%

## NS(=O)(=O)OCC1CC(n2ccc3c(NC4CCc5ccccc54)ncnc32)CC1O (stereo not given) + NC1CC1c1ccc(-c2cccc(O)c2)cc1
Second compound 0.1 µM
  IC50: 802 nM
Second compound 0.316 µM
  IC50: 848 nM
Second compound 1 µM
  IC50: 1140 nM
Second compound 3.16 µM
  IC50: 769 nM
Second compound 10 µM
  IC50: 532 nM
Second compound 0.1 µM, first compound 0.00949 µM
  viability, T/C: 102%
Second compound 0.1 µM, first compound 0.03 µM
  viability, T/C: 112%
Second compound 0.1 µM, first compound 0.0949 µM
  viability, T/C: 115%
Second compound 0.1 µM, first compound 0.3 µM
  viability, T/C: 105%
Second compound 0.1 µM, first compound 0.949 µM
  viability, T/C: 40.5%
Second compound 0.1 µM, first compound 3 µM
  viability, T/C: 12.2%
Second compound 0.316 µM, first compound 0.00949 µM
  viability, T/C: 100%
Second compound 0.316 µM, first compound 0.03 µM
  viability, T/C: 113%
Second compound 0.316 µM, first compound 0.0949 µM
  viability, T/C: 114%
Second compound 0.316 µM, first compound 0.3 µM
  viability, T/C: 105%
Second compound 0.316 µM, first compound 0.949 µM
  viability, T/C: 44.1%
Second compound 0.316 µM, first compound 3 µM
  viability, T/C: 13.4%
Second compound 1 µM, first compound 0.00949 µM
  viability, T/C: 108%
Second compound 1 µM, first compound 0.03 µM
  viability, T/C: 115%
Second compound 1 µM, first compound 0.0949 µM
  viability, T/C: 98.7%
Second compound 1 µM, first compound 0.3 µM
  viability, T/C: 102%
Second compound 1 µM, first compound 0.949 µM
  viability, T/C: 56.8%
Second compound 1 µM, first compound 3 µM
  viability, T/C: 13.9%
Second compound 3.16 µM, first compound 0.00949 µM
  viability, T/C: 99.7%
Second compound 3.16 µM, first compound 0.03 µM
  viability, T/C: 114%
Second compound 3.16 µM, first compound 0.0949 µM
  viability, T/C: 102%
Second compound 3.16 µM, first compound 0.3 µM
  viability, T/C: 105%
Second compound 3.16 µM, first compound 0.949 µM
  viability, T/C: 37.7%
Second compound 3.16 µM, first compound 3 µM
  viability, T/C: 14.1%
Second compound 10 µM, first compound 0.00949 µM
  viability, T/C: 95.4%
Second compound 10 µM, first compound 0.03 µM
  viability, T/C: 99.5%
Second compound 10 µM, first compound 0.0949 µM
  viability, T/C: 93.8%
Second compound 10 µM, first compound 0.3 µM
  viability, T/C: 69%
Second compound 10 µM, first compound 0.949 µM
  viability, T/C: 30.5%
Second compound 10 µM, first compound 3 µM
  viability, T/C: 10.9%
